Assay results published in patent US10259847B2, “Beta-hairpin peptidomimetics” (POLYPHOR AG, priority 2014, dated 2019).
Where a SMILES comes first, the peptide text is derived from it. Bridges are numbered along the chain shown (N, C = ends). [ ]: non-standard residue; d: D form. Tle = CC(C)(C)[C@H](N)C(=O)O; dDab = NCC[C@@H](N)C(=O)O; hCys = N[C@@H](CCS)C(=O)O; NMeA = CN[C@@H](C)C(=O)O; Orn = NCCC[C@H](N)C(=O)O; Dab = NCC[C@H](N)C(=O)O; Dap = NC[C@H](N)C(=O)O

Legend:
Type in all cases: cell-based
[1] = tested on: Klebsiella pneumoniae ATCC 13883; conditions: ATCC 13883
Outline: (§1)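 Peptide activity was tested by NCCLS broth microdilution with slight modifications. Bacteria were diluted in cation-adjusted Mueller-Hinton II broth to approximately 10^6 CFU/mL against a 0.5 McFarland standard. They were then exposed to two-fold serial peptide dilutions in broth containing 0.002% final polysorbate 80.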

[2] = tested on: Escherichia coli ATCC 25922; conditions: ATCC 25922
Outline: as §1

[3] = tested on: Acinetobacter baumannii DSM 30008; conditions: DSM 30008
Outline: as §1

[4] = tested on: human red blood cells (hRBC); assay: Hemolysis of human red blood cells; conditions: red cells of human, 1 h, 100
Experimental: Stock solutions were kept at +4° C., light protected.
Percent hemolysis was calculated as follows: (OD540peptide/OD540H2O)×100%.

SMILES	Klebsiella pneumoniae ATCC 13883 MIC [1]	Escherichia coli ATCC 25922 MIC [2]	Acinetobacter baumannii DSM 30008 MIC [3]	Hemolysis at 100 μg/mL [4]
CC(C)[C@@H]1NC(=O)[C@H](C)N(C)C(=O)[C@H]2CCCN2C(=O)[C@H](CO)NC(=O)[C@@H]2CSSC[C@H](NC1=O)C(=O)N[C@@H](Cc1ccc(O)cc1)C(=O)N[C@@H](CCN)C(=O)N[C@@H](CN)C(=O)N[C@H](CCN)C(=O)N[C@@H](CCN)C(=O)N[C@@H](Cc1c[nH]c3ccccc13)C(=O)N[C@@H](CCN)C(=O)N[C@@H](C(C)(C)C)C(=O)N2 [Example 9, cyclo(-Val-Cys-Tyr-Dab-Dap-^DDab-Dab-Trp-Dab-tBuGly-Cys-Ser-^DPro-NMeAla-)] (cyclo(CS[dP][NMeA]VCY[Dab][Dap][dDab][Dab]W[Dab][Tle]); disulfide 1-6)	1 µg/mL	0.5 µg/mL	1 µg/mL	6%
CC(C)C[C@@H]1NC(=O)[C@@H]2CCCN2C(=O)[C@H]2CCCN2C(=O)[C@H](CO)NC(=O)[C@@H]2CC(=O)NCC[C@H](NC1=O)C(=O)N[C@@H](Cc1ccc(O)cc1)C(=O)N[C@@H](CCN)C(=O)N[C@@H](CCCN)C(=O)N[C@H](CCN)C(=O)N[C@@H](CCN)C(=O)N[C@@H](Cc1c[nH]c3ccccc13)C(=O)N[C@@H](CCN)C(=O)N[C@@H](C(C)(C)C)C(=O)N2 [Example 37, cyclo(-Leu-Dab-Tyr-Dab-Orn-^DDab-Dab-Trp-Dab-tBuGly-Asp-Ser-^DPro-Pro-)] (HELM PEPTIDE1{L.[Dab].Y.[Dab].[Orn].[NCC[C@@H](N[*:1])C(=O)[*:2]].[Dab].W.[Dab].[CC(C)(C)[C@H](N[*:1])C(=O)[*:2]].D.S.[dP].P}$PEPTIDE1,PEPTIDE1,2:R3-11:R3|PEPTIDE1,PEPTIDE1,1:R1-14:R2$$$V2.0)	0.5 µg/mL	0.5 µg/mL	0.5 µg/mL	2.5%
CC(C)C[C@@H]1NC(=O)[C@@H]2CCCN2C(=O)[C@H]2CCCN2C(=O)[C@H](CO)NC(=O)[C@@H]2CC(=O)NCC[C@H](NC1=O)C(=O)N[C@@H](Cc1ccc(O)cc1)C(=O)N[C@@H](CCN)C(=O)N[C@@H](CCCN)C(=O)N[C@@H](CCN)C(=O)N[C@@H](CCN)C(=O)N[C@@H](Cc1c[nH]c3ccccc13)C(=O)N[C@@H](CCN)C(=O)N[C@@H](C(C)(C)C)C(=O)N2 [Example 32, cyclo(-Leu-Dab-Tyr-Dab-Orn-Dab-Dab-Trp-Dab-tBuGly-Asp-Ser-^DPro-Pro-)] (HELM PEPTIDE1{L.[Dab].Y.[Dab].[Orn].[Dab].[Dab].W.[Dab].[CC(C)(C)[C@H](N[*:1])C(=O)[*:2]].D.S.[dP].P}$PEPTIDE1,PEPTIDE1,2:R3-11:R3|PEPTIDE1,PEPTIDE1,1:R1-14:R2$$$V2.0)	0.5 µg/mL	0.5 µg/mL	0.5 µg/mL	1%
CC(C)(C)[C@@H]1NC(=O)[C@H](CCN)NC(=O)[C@H](Cc2c[nH]c3ccccc23)NC(=O)[C@H](CCN)NC(=O)[C@H](CCN)NC(=O)[C@H](CCN)NC(=O)[C@H](CCN)NC(=O)[C@H](Cc2ccc(O)cc2)NC(=O)[C@@H]2CCNC(=O)C[C@H](NC1=O)C(=O)N[C@@H](CO)C(=O)N1CC[C@@H]1C(=O)N1CCC[C@H]1C(=O)N[C@@H](Cc1c[nH]c3ccccc13)C(=O)N2 [Example 15, cyclo(-Trp-Dab-Tyr-Dab-Dab-Dab-Dab-Trp-Dab-tBuGly-Asp-Ser-^DAzt-Pro-)] (HELM PEPTIDE1{D.S.[O=C([C@H]1CCN1[*:1])[*:2]].P.W.[Dab].Y.[Dab].[Dab].[Dab].[Dab].W.[Dab].[CC(C)(C)[C@H](N[*:1])C(=O)[*:2]]}$PEPTIDE1,PEPTIDE1,1:R3-6:R3|PEPTIDE1,PEPTIDE1,1:R1-14:R2$$$V2.0)	0.25 µg/mL	0.25 µg/mL	0.5 µg/mL	1%
CC(C)C[C@@H]1NC(=O)[C@H](CCCCN)NC(=O)[C@H]2CCCN2C(=O)[C@H](C(C)C)NC(=O)[C@@H]2CSSC[C@H](NC1=O)C(=O)N[C@@H](Cc1ccc(O)cc1)C(=O)N[C@@H](C)C(=O)N[C@@H](CCCN)C(=O)N[C@H](CCN)C(=O)N[C@@H](CCN)C(=O)N[C@@H](Cc1c[nH]c3ccccc13)C(=O)N[C@@H](C)C(=O)N[C@@H](C(C)C)C(=O)N2 [Example 3, cyclo(-Leu-Cys-Tyr-Ala-Orn-^DDab-Dab-Trp-Ala-Val-Cys-Val-^DPro-Lys-)] (HELM PEPTIDE1{A.[Orn].[NCC[C@@H](N[*:1])C(=O)[*:2]].[Dab].W.A.V.C.V.[dP].K.L.C.Y}$PEPTIDE1,PEPTIDE1,8:R3-13:R3|PEPTIDE1,PEPTIDE1,1:R1-14:R2$$$V2.0)	4 µg/mL	2 µg/mL	1 µg/mL	3.5%
CC[C@H](C)[C@@H]1NC(=O)[C@@H]2CCCN2C(=O)[C@H]2CCCN2C(=O)[C@H](CO)NC(=O)[C@@H]2CSSC[C@H](NC1=O)C(=O)N[C@@H](Cc1ccc(O)cc1)C(=O)N[C@@H](CCN)C(=O)N[C@@H](CCCN)C(=O)N[C@H](CCN)C(=O)N[C@@H](CCN)C(=O)N[C@@H](Cc1c[nH]c3ccccc13)C(=O)N[C@@H](CCN)C(=O)N[C@@H](C(C)(C)C)C(=O)N2 [Example 10, cyclo(-Ile-Cys-Tyr-Dab-Orn-^DDab-Dab-Trp-Dab-tBuGly-Cys-Ser-^DPro-Pro-)] (HELM PEPTIDE1{I.C.Y.[Dab].[Orn].[NCC[C@@H](N[*:1])C(=O)[*:2]].[Dab].W.[Dab].[CC(C)(C)[C@H](N[*:1])C(=O)[*:2]].C.S.[dP].P}$PEPTIDE1,PEPTIDE1,2:R3-11:R3|PEPTIDE1,PEPTIDE1,1:R1-14:R2$$$V2.0)	0.25 µg/mL	1 µg/mL	1 µg/mL	1%
CC(C)C[C@@H]1NC(=O)[C@@H]2CCCN2C(=O)[C@H]2CCCN2C(=O)[C@H](CO)NC(=O)[C@@H]2CCC(=O)NC[C@H](NC1=O)C(=O)N[C@@H](Cc1ccc(O)cc1)C(=O)N[C@@H](CCN)C(=O)N[C@@H](CCCN)C(=O)N[C@H](CCN)C(=O)N[C@@H](CCN)C(=O)N[C@@H](Cc1c[nH]c3ccccc13)C(=O)N[C@@H](CCN)C(=O)N[C@@H](C(C)(C)C)C(=O)N2 [Example 29, cyclo(-Leu-Dap-Tyr-Dab-Orn-^DDab-Dab-Trp-Dab-tBuGly-Glu-Ser-^DPro-Pro-)] (cyclo(L[Dap]Y[Dab][Orn][dDab][Dab]W[Dab][Tle]ES[dP]P); lactam 2-11)	0.5 µg/mL	1 µg/mL	1 µg/mL	0.5%
CC(C)[C@@H]1NC(=O)[C@@H]2CCCN2C(=O)[C@H]2CCCN2C(=O)[C@H](CO)NC(=O)[C@@H]2CSSCC[C@H](NC1=O)C(=O)N[C@@H](Cc1ccc(O)cc1)C(=O)N[C@@H](CCN)C(=O)N[C@@H](CN)C(=O)N[C@H](CCN)C(=O)N[C@@H](CCN)C(=O)N[C@@H](Cc1c[nH]c3ccccc13)C(=O)N[C@@H](CCN)C(=O)N[C@@H](C(C)(C)C)C(=O)N2 [Example 39, cyclo(-Val-Hcy-Tyr-Dab-Dap-^DDab-Dab-Trp-Dab-tBuGly-Cys-Ser-^DPro-Pro-)] (cyclo(V[hCys]Y[Dab][Dap][dDab][Dab]W[Dab][Tle]CS[dP]P); disulfide 2-11)	1 µg/mL	1 µg/mL	2 µg/mL	2%
